Experimental data reported in patent US4599362A, “2-aryl-ethyl ether derivatives and insecticidal and acaricidal agents containing said derivatives” (priority 1980, dated 1986).
Where two headings read alike, the source gives them in different places.

Tests used:
yearling carps = assay: Test 8: Fish Toxicity; assay type: in vivo; conditions: 48 hours, concentration at which 1/2 of the test fishes were killed
Method: A water tank having a width of 60 cm, a length of 30 cm and a height of 40 cm was filled with water, and 10 yearling carps having a body length of about 5 cm were set free in the tank and adapted to the environment in the tank. A test compound was applied so that the concentration in water was 10, 1, or 0.1 ppm. After 48 hours, the numbers of killed and living carps were counted and the influences on the fishes were examined.

[1] = tested on: second-instar larvae of tobacco cutworm; assay: whole plant or invertebrate; assay type: in vivo; conditions: foliar
Method: To a mixture of 20 parts of the compound of the present invention and 20 parts of Sorpol SM-200 (registered trademark for the product supplied by Toho Chemical Industrial Co., Ltd.) was added 60 parts of xylol, and the mixture was sufficiently blended. The obtained emulsifiable concentrate was diluted at a predetermined concentration with distilled water, and the obtained dilution was used.
An emulsifiable concentrate of a test compound prepared according to the method described in Formulation Example 1 was diluted to a concentration of 100 or 20 ppm. Among the compounds of the present invention, the following compounds were used as the test compounds: (1), (l ), (3), (4), (6), (8), (9), (10), (11), (14), (15), (16), (17), (18), (19), (20), (21), (24), (27), (28), (29), (30), (33), (34), (35), (36), (38), (39), (40), (41), (42), (43), (47), (48), (50), (51), (52), (53), (54), (55), (56), (59), (60), (62), (63), (64), (65), (66), (67) and (68). Sweetpotato leaves were immersed in the dilution for 10 seconds, air-dried and placed in a plastic cup having a diameter of 10 cm. Then second-instar larvae of tobacco cutworm were set free in the cup. The cup was allowed to stand still in a thermostat chamber maintained at 25° C. After 48 hours, the numbers of killed and living larvae were counted and the mortality was calculated. The obtained result was expressed by an average value obtained from the mortality calculated in three test cups. Compounds of (b), (f) and (h) were tested as comparative compounds in the same manner as the compounds of the present invention.

two-spotted spider mite = assay: Test 6: Effect on Two-Spotted Spider mite adults; assay type: in vivo; conditions: 500 ppm, adults, 24 hours
How it was run: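 Kidney bean leaf discs (15 mm) on wet cotton, each holding 10 adult mites, sprayed with 3 ml of a 500 ppm dilution of an emulsifiable concentrate. Kept at 25° C; dead adults counted after 24 hours to give mortality, averaged over three discs.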

[2] = tested on: third-instar larvae of diamond back moth; assay: Test 4: Effect on Diamond Back Moth; assay type: in vivo; conditions: Plutella xylostella, 24 hours
How it was run: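 Emulsifiable concentrate diluted in water to 100 or 20 ppm and sprayed at 3 ml per cup onto cabbage leaves holding 10 third-instar diamondback moth larvae. Dead and living larvae counted after 24 h; mortality averaged over three cups.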

[3] = tested on: sensitive green rice leafhopper (collected at Chigasaki); assay: Test 3: Effect on Sensitive Green Rice Leafhopper; assay type: in vivo; conditions: female adults, 24 hours
How it was run: (§1)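 Rice seedlings (2–3 leaves) sprayed with emulsifiable-concentrate dilutions at 100 or 20 ppm, 3 ml per pot, air-dried, then infested with 10 female adults per pot. Mortality counted after 24 h and averaged over three pots.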

male mice = assay: Test 9: Toxicity Test (acute oral, mice); conditions: male mice; oral, corn oil; 7 days
How it was run: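 Compound dissolved or suspended in corn oil was given orally to male mice of 19–23 g body weight, at 0.2 ml per 10 g. Deaths and effects were recorded after 7 days.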

[4] = tested on: resistant green rice leafhopper (collected at Nakagawara); assay: Test 3: Effect on Resistant Green Rice Leafhopper; assay type: in vivo, Nephotettix cincticeps Uhler; conditions: resistant, female adults, 24 hours
How it was run: as §1

[5] = 20 ppm, second-instar larvae, 48 hours, read-out: Mortality (%)

With “3-phenoxy-α-cyanobenzyl 2,2-dimethyl-3-(2,2-dichlorovinyl)-cyclopropano-1-carboxylate [(i), reference compound]” as the molecule, how does the “Fish Toxicity, TLm48” value (yearling carps) read?
The value was “below 0.005 ppm”.

With `CC(C)C(COCc1cccc(Oc2ccccc2)c1)c1ccc(Cl)cc1` (stereo not shown) [(b), reference compound] as the molecule, how does the mortality at 100 ppm ([1]; 48 h) read?
Its mortality at 100 ppm is 50%.

And the mortality at 20 ppm [1, 5]?
Its mortality at 20 ppm is 0%.

What about the mortality at 500 ppm (two-spotted spider mite; Tetranychus urticae, read-out: Mortality (%)) of the same molecule?
The mortality at 500 ppm was 20%.

What about the mortality at 20 ppm ([2]; 20 ppm) of the same molecule?
Its mortality at 20 ppm is 10%.

What about the mortality at 100 ppm ([2]; 100 ppm) of the same molecule?
Its mortality at 100 ppm is 30%.

What does the source list for `COP(=O)(NC(C)=O)SC` (stereo not shown) [(h), O,S-dimethyl N-acetylphosphoroamidothiolate]?
mortality at 20 ppm ([1]; 48 h): 30%; mortality at 100 ppm ([1]; 48 h): 70%

What does the source list for `CNC(=O)ON=C(C)SC` [Comparative Compound (f), S-methyl N-(methylcarbamoyloxy)thioacetoamidate]?
mortality at 20 ppm [1, 5]: 80%; mortality at 100 ppm ([1]; 100 ppm, second-instar larvae, 48 hours, read-out: Mortality (%)): 100%

Which results are given for “Pyrethrin [Comparative Compound (c), reference compound]”?
Mortality (%) (two-spotted spider mite): 0%; Mortality (%) Green Rice Leafhopper Collected at Chigasaki ([3]; 20 ppm): 0%; Mortality (%) Green Rice Leafhopper Collected at Chigasaki ([3]; 100 ppm): 0%; Acute Toxicity at Oral Administration, LD-50 (male mice): 340 mg/kg; Mortality (%) Green Rice Leafhopper Collected at Nakagawara ([4]; 20 ppm): 0%; Mortality (%) Green Rice Leafhopper Collected at Nakagawara ([4]; 100 ppm): 0%
